In patent US20020052377A1, “Method for treating angina” (priority 2000, published 2002):
In brackets after ≈: the same amount, converted by molar mass. Where two headings read alike, the source gives them in different places.

How the values were obtained:
[1] = Solubility of ranolazine in aqueous solutions by pH; assay type: physicochemical
[2] = test system: patients with chronic stable angina pectoris; assay: Safety, tolerability and hemodynamics, IR regimens (Example 3); assay type: in vivo, human
Description: After each 1 week period, patients returned to the exercise laboratory in the morning, at least 1 hour after a light breakfast, for an ETT. This was designated the trough ETT; the trough ETTs were performed at the same time of day for each patient. After completing the trough ETT, the patient received the next scheduled blinded medication dose from the blister pack used that week. Another ETT was performed 1 hour after the administered dose. This was designated the peak ETT. Blood samples were obtained at trough (approximately 8 hours after dosing) and at peak (1 hour after dosing). Other standard laboratory tests were monitored regularly throughout the study. Blood pressure (by cuff) and heart rate were monitored before all ETTs, during the ETT, during the last minute of each stage of the test, at onset angina, at the point of maximum exercise, and during recovery (every minute for 4 minutes, then every 5 minutes until values returned to baseline). Heart rates also was monitored continuously and standard 12-lead ECG recordings were done immediately before exercise with the patient standing on the treadmill, at the end of each stage of exercise, at the maximally tolerated exercise load, and at the termination of exercise.

[3] = MARISA ranolazine plasma concentration; assay type: in vivo; details: human, oral; for concentration at 4 h: read-out: Ranolazine Plasma Concentration, Peak, mean (SD); for concentration at 12 h: read-out: Ranolazine Plasma Concentration, Trough, mean (SD)
Description: Methods: Patients withdrawn from other anti-anginal drugs with reproducible angina-limited exercise duration and ≧1 mm ST depression were randomized to Ran (500 mg bid, 1000 mg bit and 1500 mg bid) and matching placebo (Pbo) in a double-blind, four-period, Latin square crossover design. Exercise testing with a modified Bruce protocol was performed at both trough (12 hr after dosing) and peak (4 hr after dosing). Results: 49 centers in the USA, Czech Republic, Poland and Canada randomized 191 patients. 168 completed all 4 double-blind treatment periods; 7 more completed 3 of 4 periods.
Results: Ran improved exercise duration times in comparison to the placebo.

[4] = test system: patients with angina, with or without diabetes; assay: MARISA exercise duration, diabetic (DM) vs non-DM patients; assay type: in vivo, human
Description: In this Example, ranolazine (Ran) was administered to two sets of human subjects. The first set of subjects were suffering from angina alone while the second set of subjects were suffering from angina and diabetes. The […] (Monotherapy Assessment of Ranolazine in Stable Angina) study randomized patients to Ran (500 mg, 1000 mg and 1500 mg bit) and placebo in a double-blind, 4 period crossover study. All patients performed a modified Bruce exercise test at the time of trough and peak drug levels on each treatment; 42 patients with DM were compared to 133 non-DM patients.

[5] = test system: patients with chronic angina, with or without history of heart failure; assay: MARISA exercise duration, patients with or without history of heart failure (HF); assay type: in vivo, human
Description: This Example evaluates the effectiveness of ranolazine (Ran) in human patients with chronic angina and a history of heart failure. The […] (Monotherapy Assessment of Ranolazine In Stable Angina) study randomized patients to Ran (500 mg, 1000 mg and 1500 mg bid) and placebo in a double-blind, 4 period, crossover design study. […] All patients performed a modified Bruce exercise test at the time of trough (morning) and peak (afternoon) drug levels on each treatment.

[6] = test system: regional myocardial ischemia and reperfusion; assay: Rat model of regional myocardial ischemia and reperfusion (LAD-occlusion); assay type: in vivo, Male Wistar rats; details: LAD-occlusion 25 min, reperfusion 2 h, bolus 10 mg/kg + infusion 96. mg/kg/h from 30 min before occlusion, mean±SEM, n=12
Description: The aim of this study was to investigate whether ranolazine exerts beneficial effects in a rat model of regional myocardial ischemia and reperfusion. Methods: Male Wistar rats were subjected to no LAD-occlusion (sham) or LAD-occlusion (25 min) and reperfusion (2 h). Saline (bolus: 2.4 mL/kg+infusion: 24. mL/kg/h) or ranolazine (bolus: 10 mg/kg +infusion; 96. mg/kg/h) were infused 30 min before LAD-occlusion and throughout the experiment. At the end of the experiment area at risk (AR, % of left ventricle), infarct size (IS, % of AR), and plasma cardiac troponin T (cTnT, ng/mL) were determined. The following groups were studied: Group 1. sham saline (n=4), Group 2. saline control (n=12), Group 3. ranolazine (n=12).

[7] = Solution pH 7.59 (unbuffered water)

COc1ccccc1OCC(O)CN1CCN(CC(=O)Nc2c(C)cccc2C)CC1 (racemic) [Ranolazine, (±)-N-(2,6-dimethylphenyl)-4-[2-hydroxy-3-(2-methoxyphenoxy)propyl]-1-piperazine-acetamide]
USP Solubility Class ([1]; Solution pH 4.81): Freely soluble | USP Solubility Class ([1]; Solution pH 4.89): Soluble | USP Solubility Class ([1]; Solution pH 4.90): Soluble | USP Solubility Class ([1]; Solution pH 5.04): Soluble | USP Solubility Class ([1]; Solution pH 5.35): Sparingly soluble | USP Solubility Class ([1]; Solution pH 5.82): Slightly soluble | USP Solubility Class ([1]; Solution pH 6.46): Slightly soluble | USP Solubility Class ([1]; Solution pH 6.73): Very slightly soluble | USP Solubility Class ([1]; Solution pH 7.08): Very slightly soluble | USP Solubility Class [1, 7]: Very slightly soluble | solubility [1, 7]: 240 µg/mL (≈ 0.561 mM) | USP Solubility Class ([1]; Solution pH 7.73): Very slightly soluble | USP Solubility Class ([1]; Solution pH 12.66): Very slightly soluble | solubility ([1]; aqueous solution, aqueous buffer, Solution pH 4.81): 161000 µg/mL (≈ 377 mM) | solubility ([1]; aqueous solution, aqueous buffer, Solution pH 4.89): 73800 µg/mL (≈ 173 mM) | solubility ([1]; aqueous solution, aqueous buffer, Solution pH 5.04): 49400 µg/mL (≈ 116 mM) | solubility ([1]; aqueous solution, aqueous buffer, Solution pH 5.35): 16700 µg/mL (≈ 39.1 mM) | solubility ([1]; aqueous solution, aqueous buffer, Solution pH 5.82): 5480 µg/mL (≈ 12.8 mM) | solubility ([1]; aqueous solution, aqueous buffer, Solution pH 6.46): 1630 µg/mL (≈ 3.81 mM) | solubility ([1]; aqueous solution, aqueous buffer, Solution pH 6.73): 830 µg/mL (≈ 1.94 mM) | solubility ([1]; aqueous solution, aqueous buffer, Solution pH 7.08): 390 µg/mL (≈ 0.912 mM) | solubility ([1]; aqueous solution, aqueous buffer, Solution pH 7.73): 170 µg/mL (≈ 0.398 mM) | solubility ([1]; aqueous solution, aqueous buffer, Solution pH 12.66): 180 µg/mL (≈ 0.421 mM) | solubility ([1]; aqueous solution, pH 4.9, aqueous buffer, Solution pH 4.90): 76400 µg/mL (≈ 179 mM) | blood glucose concentrations, lipid values or liver function tests ([2]; IR dosing regimens): no clinically significant changes | ECG intervals or complex morphology ([2]; IR dosing regimens vs placebo): no drug-related changes | tolerability ([2]; over the plasma concentrations achieved in the study): well tolerated | concentration at 4 h ([3]; 500 mg BID): 1120 ng/mL | concentration at 12 h ([3]; 500 mg BID): 846 ng/mL | concentration at 4 h ([3]; 1000 mg BID): 2460 ng/mL | concentration at 12 h ([3]; 1000 mg BID): 1950 ng/mL | concentration at 4 h ([3]; 1500 mg BID): 3940 ng/mL | concentration at 12 h ([3]; 1500 mg BID): 3270 ng/mL | Ls mean ED ([4]; DM n = 42, 500 mg bid, peak): 527 s | Ls mean ED ([4]; DM n = 42, 500 mg bid, trough): 520 s | Ls mean ED ([4]; DM n = 42, 1000 mg bid, peak): 550 s | Ls mean ED ([4]; DM n = 42, 1000 mg bid, trough): 526 s | Ls mean ED ([4]; DM n = 42, 1500 mg bid, peak): 547 s | Ls mean ED ([4]; DM n = 42, 1500 mg bid, trough): 530 s | Ls mean ED ([4]; Non-DM n = 133, 500 mg bid, peak): 530 s | Ls mean ED ([4]; Non-DM n = 133, 500 mg bid, trough): 528 s | Ls mean ED ([4]; Non-DM n = 133, 1000 mg bid, peak): 550 s | Ls mean ED ([4]; Non-DM n = 133, 1000 mg bid, trough): 539 s | Ls mean ED ([4]; Non-DM n = 133, 1500 mg bid, peak): 557 s | Ls mean ED ([4]; Non-DM n = 133, 1500 mg bid, trough): 544 s | LS mean ED ([5]; HF n=29, 500 mg bid, peak): 518 s | LS mean ED ([5]; HF n=29, 500 mg bid, trough): 512 s | LS mean ED ([5]; HF n=29, 1000 mg bid, peak): 520 s | LS mean ED ([5]; HF n=29, 1000 mg bid, trough): 514 s | LS mean ED ([5]; HF n=29, 1500 mg bid, peak): 545 s | LS mean ED ([5]; HF n=29, 1500 mg bid, trough): 524 s | LS mean ED ([5]; No HF n=146, 500 mg bid, peak): 538 s | LS mean ED ([5]; No HF n=146, 500 mg bid, trough): 539 s | LS mean ED ([5]; No HF n=146, 1000 mg bid, peak): 563 s | LS mean ED ([5]; No HF n=146, 1000 mg bid, trough): 551 s | LS mean ED ([5]; No HF n=146, 1500 mg bid, peak): 564 s | LS mean ED ([5]; No HF n=146, 1500 mg bid, trough): 563 s | area at risk (AR) [6]: 48±1 % of left ventricle | infarct size (IS) [6]: 41±4 % of AR | plasma cardiac troponin T (cTnT) [6]: 12 ± 2 ng/mL
